PubChem BioAssay (NCI)
Where “and” joins values, the source holds several entries; their conditions need not be identical. Equal values may be shown once.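 Tested at 5 concentrations; 48 h exposure; 96-well plates; endpoints linearly interpolated, else capped at highest concentration. Here, GI50 denotes the concentration required for 50% inhibition of growth. TGI: concentration producing complete growth inhibition.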

Legend:
Experiment in all cases: NCI tumour cell line growth inhibition, 48 h
[1] = test system: EKVX NSCLC
[2] = test system: OVCAR-4 ovarian
[3] = test system: UACC-257 melanoma
[4] = test system: SK-MEL-5 melanoma
[5] = test system: SNB-19 CNS
[6] = test system: DMS 273 small cell lung
[7] = test system: DLD-1 colon
[8] = test system: M19-MEL melanoma
[9] = test system: DMS 114 small cell lung
[10] = test system: KM20L2 colon

| SMILES | TGI [1] [µM] | TGI [2] | TGI [3] [µM] | TGI [4] [µM] | TGI [5] [µM] | TGI [6] | TGI [7] | TGI [8] | TGI [9] | also measured |
| --- | --- | --- | --- | --- | --- | --- | --- | --- | --- | --- |
| CC(=O)OCC1OC(N2C(=O)CC(N)=Nc3ccccc32)C(OC(C)=O)C(OC(C)=O)C1OC(C)=O (stereo not drawn) | > 100 | > 100 µM | > 100 | 46.8 | > 100 | – | – | – | – | – |
| Nc1nccc2c1ncn2C1C=C(CO)C(O)C1O (stereo not drawn) | – | > 1000 µM | > 1000 | > 1000 | > 1000 | > 1000 µM | > 1000 µM | > 1000 µM | > 1000 µM | GI50 [6]: 6.13 µM; GI50 [2]: > 1000 µM; GI50 [7]: 104 µM; GI50 [3]: 3.28 µM; GI50 [8]: 7.78 µM; GI50 [9]: 2.18 µM; GI50 [5]: > 1000 µM |
| Cc1ccc(NC(=O)CC(=O)n2nc(-c3ccccc3)c(N=Nc3ccccc3C(=O)O)c2-c2ccccc2)cc1 | > 100 | > 100 µM | – | > 100 | > 100 | > 100 µM | > 100 µM | > 100 µM | – | TGI [10]: > 100 µM |
| O=C1/C(=C/c2ccc3c(c2)OCO3)Sc2scc(-c3ccc(O)c(O)c3)[n+]21 | 8.25 | 14 µM | 9.35 | > 22.4 | 36.2 | – | – | – | – | – |
| Cc1cc(O)c2cc3c(O)c(O)ccc3cc2c1 | 24.7 | 5.53 µM | 13.5 | 1.07 | > 100 | – | – | – | – | – |
| O=CN(O)CC(=O)O.[Ni] | > 100 | > 100 µM | > 100 | > 100 | > 100 | – | – | – | – | – |
| OCCSCc1cc(Cl)cc(Cl)c1O | > 100 | > 100 µM | > 100 | > 100 | > 100 | – | – | – | – | – |
| NS(=O)(=O)c1ccc(N=Nc2ccc(O)c(O)c2)cc1 | > 100 | 29.1 µM | 66.6 | 19.7 | 84 | – | – | – | – | – |
| CC(=O)C1=C(C)N(c2ccc(C)cc2)C2(O)C=CC(=O)C3=C(O)c4ccccc4C(=O)C312 (stereo not drawn) | 61.2 | 36 µM | 27.1 | 26.3 | > 100 | – | – | – | – | – |
| CC(C)(C)C(=O)CC(=O)C(F)(F)C(F)(F)C(F)(F)F.CC(C)(C)C(=O)CC(=O)C(F)(F)C(F)(F)C(F)(F)F.CC(C)(C)C(=O)CC(=O)C(F)(F)C(F)(F)C(F)(F)F.[Er] | 96.8 | > 100 µM | – | – | > 100 | – | – | – | – | – |
| Cc1ccc([S+](c2ccccc2)c2cc(C)ccc2C)cc1 (stereo not drawn) | > 100 | > 100 µM | > 100 | 3.91 | > 100 | 15.3 µM | 19.1 µM | > 100 µM | 13.8 µM | – |
| O=CNNC(=O)CSc1nc2ccc(I)cc2c(=O)n1Cc1ccccc1 | 69.7 | > 100 µM | 68.3 | 38.2 | > 100 | – | – | – | – | – |
| O=C1CC(NC2CC(=O)c3c(Br)sc(Br)c32)c2c(Br)sc(Br)c21 (stereo not drawn) | 22.7 | > 78.1 µM | 4.93 | 18.2 | 28.4 | – | – | – | – | – |
| COC[C@@H]1Cc2cc(OC)c3c(c2[C@H](c2ccc(OC)c(OC)c2)[C@H]1COC)OCO3 | > 100 | – | > 100 | – | > 100 | > 100 µM | > 100 µM | > 100 µM | > 100 µM | TGI [10]: > 100 µM |
| O=NN(CCCl)C(=O)Nc1ccc(Cl)c(Cl)c1 | > 100 | > 100 µM | > 100 | > 100 | > 100 | > 100 µM | > 100 µM | > 100 µM | > 100 µM | TGI [10]: > 69.3 µM |
| O=S(=O)(c1ccccc1)[C@@H]1[C@H]2C=C[C@](CS)(O2)[C@H]1S(=O)(=O)c1ccccc1 | > 100 | > 100 µM | > 100 | > 100 | > 100 | – | – | – | – | – |
| COc1cc(CCC(=O)O)c2cc3ccccc3cc2c1O | 53.1 | 29.7 µM | 31 | 28.4 | 60.5 | – | – | – | – | – |
| O=[N+]([O-])c1ccc(/C=N/n2c(CCc3n[nH]c(=S)n3/N=C/c3ccc([N+](=O)[O-])o3)n[nH]c2=S)o1 | > 100 | 36.7 µM | 83.8 | 33.3 | – | – | – | – | – | – |
| O=C1CSc2sc(=S)sc2S1 | > 100 | > 100 µM | > 100 | > 100 | > 100 | > 100 µM | > 100 µM | > 100 µM | > 100 µM | TGI [10]: > 100 µM |
| Oc1ccc(NCc2cc(O)ccc2O)cc1 | 31.2 | 30.7 µM | 32 | 38.9 | 35.1 | – | – | – | – | – |
| COc1cccc2c1C(=O)c1c(O)c3c(c(O)c1C2=O)C[C@@](O)(C(C)=O)C[C@@H]3OC1CC(N(C)C)C(O)C(C)O1 (stereo partly drawn) | – | 0.52 µM and 0.977 µM | – | – | – | 0.204 µM and 0.18 µM | 3.34 µM and 0.705 µM | 0.292 µM and 0.039 µM | 0.302 µM and 0.274 µM | GI50 [10]: < 0.0133 µM; TGI [10]: 0.307 µM and 0.367 µM; GI50 [1]: 0.126 µM and 0.0588 µM; GI50 [6]: 0.0054 µM; GI50 [2]: < 0.0164 µM; GI50 [3]: 0.0435 µM and < 0.0185 µM; GI50 [4]: 0.0368 µM and < 0.0109 µM; GI50 [9]: < 0.0199 µM; GI50 [5]: 0.0396 µM |
| O=C1NC2(NC(=O)C1=O)Nc1ccccc1S2 | > 100 | > 100 µM | > 100 | > 100 | > 100 | > 100 µM | > 67.5 µM | – | 79.8 µM | TGI [10]: > 100 µM |
| CC(C)(C)OC(=O)N1CCCC1C(=O)NCCNc1ccc(NCCNC(=O)C2CCCN2C(=O)OC(C)(C)C)c2c1C(=O)c1ccccc1C2=O (stereo not drawn) | > 100 | 51.4 µM | 29.6 | – | – | – | – | – | – | – |
